Legend:
[1] = tested on: HCC70 human breast ductal cancer cells; experiment: HCC70 tumor cell proliferation inhibition (CellTiter-Glo); assay type: cell-based; settings: 3 d culture
Protocol: HCC70 was purchased from ATCC; article No.: CRL-2315; RPMI1640 was purchased from Gibco; article No.: 11875-093; Pancreatin (including EDTA) was purchased from Gibco; article No.: 25200-072; FBS was purchased from Gibco; article No.: 10099-141C; CellTiter-Glo was purchased from Promega; article No.: G7573; DMSO was purchased from VWR AMRESCO; article No.: 0231-500ML; Staurosporine was purchased from Selleck; article No.: S1421; a cell counter was purchased from CHEMOMETEC; model: NC-200; and a microplate reader was purchased from PerkinElmer; Model: Envison.
(§1) HCC70 was human breast ductal cancer cells cultured in an RPMI-1640 culture medium containing 10% FBS. Cells in logarithmic phase were taken, and the cells were subjected to digesting, collecting and counting with pancreatin-EDTA, 2000 HCC70 cells/well were inoculated in a 384-well cell plate, and were cultured in 5% CO2 overnight. A 1000× compound stock solution with 3.16 times of gradient concentration was prepared with DMSO, and was diluted 100 times to 10× compound stock solution with a culture medium, and 10× compound stock solution was added into each cell culture well on the next day after cell inoculation, wherein the final concentration was 1×, and the DMSO content was 0.1%. The cell group was treated with DMSO as an experimental control (control), and the cell group was treated with 5 μM of Staurosporine as a blank control (blank).

[2] = tested on: OVCAR-3 human ovarian adenocarcinoma cells; experiment: OVCAR-3 tumor cell proliferation inhibition (CellTiter-Glo); assay type: cell-based; settings: 3 d culture
Protocol: OVCAR-3 was purchased from ATCC; article No.: HTB-161; RPMI1640 was purchased from Gibco; article No.: 11875-093; Pancreatin (including EDTA) was purchased from Gibco; article No.: 25200-072; FBS was purchased from Gibco; Article No.: 10091-148; CellTiter-Glo was purchased from Promega; article No.: G7573; Bovine insulin was purchased from absin; article No.: abs9169; DMSO was purchased from VWR AMRESCO; article No.: 0231-500ML; Staurosporine was purchased from Selleck; article No.: S1421; a cell counter was purchased from CHEMOMETEC; model: NC-200; and a microplate reader was purchased from PerkinElmer; Model: Envison.
as §1, with “OVCAR-3” for “HCC70”, “ovarian adenocarcinoma” for “breast ductal cancer”, “20% FBS and 0.01 mg/mL of Bovine insulin.” for “10% FBS.”

[3] = In-vivo pharmacokinetic experiment in male beagles; design: species or system dog; settings: beagle
Protocol: Experimental method and conditions: male beagles with weight of 8-11 kg were purchased from Jiangsu Marshall Biotechnology Co., Ltd. The to-be-tested compound was administered to 3 dogs at 0.2 mg/kg or 1.0 mg/kg (solvent: 2% DMSO+10% Kolliphor HS 15+88% (6.818% of hydroxypropyl-beta-cyclodextrin aqueous solution), 0.2 mg/mL or 1.0 mg/mL) by intravenous injection, and administered to 3 dogs at 2 mg/kg (solvent: 5% DMSO+95% (10% hydroxypropyl-beta-cyclodextrin salt aqueous solution, 0.4 mg/mL) by oral intragastric administration. Head vein blood sampling was carried out 5 min, 15 min, 30 min, 1 h, 2 h, 4 h, 8 h and 24 h after the administration, and 500 μL of each sample was collected. After collection, the samples were placed on ice, and plasma was centrifugally separated within 15 min for testing. The concentration of the medicine in the plasma was detected by liquid chromatography-tandem mass spectrometry (LC/MS/MS), and pharmacokinetic parameters were calculated with Phoenix WinNonlin software when the concentration was measured.

[4] = male, dog, plasma, intravenous injection 1.0 mg/kg
[5] = male, dog, plasma, oral administration 2 mg/kg

IC50 [2] | SMILES | IC50 [1] | further results
11.8 nM | CN1CC(F)CCNC2CCC(C2)Nc2ncc(C(F)(F)F)c(n2)-c2c[nH]c3c(P(C)(C)=O)c(ccc23)C1=O [Compound Z77, (4^1S,4^3S,8S)-17-(dimethylphosphoryl)-8-fluoro-10-methyl-2^5-(trifluoromethyl)-1′H-3,5,10-triaza-1(3,6)-indola-2(4,2)-pyrimidina-4(1,3)-cyclopentanacycloundecaphan-11-one] | 9.87 nM | 
198 nM | CN1CCCCN(C)[C@H]2CC[C@@H](C2)Nc2ncc(C(F)(F)F)c(n2)-c2c[nH]c3c(C#N)c(ccc23)C1=O [Compound Z84, (4^1S,4^3S)-5,10-dimethyl-11-oxo-2^5-(trifluoromethyl)-1^1H-3,5,10-triaza-1(3,6)-indola-2(4,2)-pyrimidina-4(1,3)-cyclopentanacycloundecaphane-1^7-carbonitrile] | 263 nM | 
> 10000 nM | CN1CCC(F)(F)CN(C)C2CC[C@@H](C2)Nc2ncc(C(F)(F)F)c(n2)-c2c[nH]c3c(P(C)(C)=O)c(ccc23)C1=O [Compound Z86, (4^1S,4^3S)-1^7-(dimethylphosphoryl)-7,7-difluoro-5,10-dimethyl-2^5-(trifluoromethyl)-1^1H-3,5,10-triaza-1(3,6)-indola-2(4,2)-pyrimidina-4(1,3)-cyclopentanacycloundecaphan-11-one] | > 10000 nM | 
8.84 nM | CP(C)(=O)c1c2ccc3c(c[nH]c13)-c1nc(ncc1C(F)(F)F)N[C@H]1CC[C@@H](C1)NCC[C@H](F)CNC2=O (single isomer, unassigned) [Compound Z68-2] | 3.18 nM | 
195 nM | CN1CCOCCN(C)[C@H]2CC[C@@H](C2)Nc2ncc(C(F)(F)F)c(n2)-c2c[nH]c3c(P(C)(C)=O)c(ccc23)C1=O [Compound Z63, (4^1S,4^3S)-1^7-(dimethylphosphoryl)-5,11-dimethyl-2^5-(trifluoromethyl)-1^1H-8-oxa-3,5,11-triaza-1(3,6)-indola-2(4,2)-pyrimidina-4(1,3)-cyclopentanacyclododecaphan-12-one] | 134 nM | 
135 nM | N#Cc1c2ccc3c(c[nH]c13)-c1nc(ncc1C(F)(F)F)N[C@H]1CC[C@@H](C1)NCCCCNC2=O [Compound Z23, (4^1S,4^3S)-11-oxo-2^5-(trifluoromethyl)-1^1H-3,5,10-triaza-1(3,6)-indola-2(4,2)-pyrimidina-4(1,3)-cyclopentanacycloundecaphane-17-carbonitrile] | 66.6 nM | 
 | CC1(C)CC[C@H](Nc2ncc(C(F)(F)F)c(-c3c[nH]c4c(P(C)(C)=O)c(C#N)ccc34)n2)CN1 [Compound 101, reference compound] |  | CL ([3]; intravenous injection 1.0 mg/kg): 14.5 mL/min/kg; Cmax ([3]; oral administration 2 mg/kg): 123 ng/mL; F(%) ([3]; oral administration 2 mg/kg): 65.8%; AUC(0-inf) [3, 4]: 1230 ng·h/mL; half-life [3, 4]: 6.88 h; Vd ([3]; male, dog, plasma, intravenous injection 1.0 mg/kg, read-out: Vss): 7.57 L/kg; AUC(0-inf) [3, 5]: 1590 ng·h/mL; half-life [3, 5]: 6.61 h
 | COc1cc2c(cn1)-c1ccc3c(c[nH]c3c1)-c1nc(ncc1C(F)(F)F)N[C@H]1CC[C@@H](C1)NCCCC2 [Compound Z73] |  | IC50 ([1]; Homo sapiens, HCC70, 72 h): 233 nM; IC50 ([2]; Homo sapiens, OVCAR-3, 72 h): 1050 nM
1800 nM | CN1CCC(F)(F)CN(C)C2CC[C@@H](C2)Nc2ncc(C(F)(F)F)c(n2)-c2c[nH]c3c(P(C)(C)=O)c(ccc23)C1=O [Compound Z85, (4^1S,4^3S)-1^7-(dimethylphosphoryl)-7,7-difluoro-5,10-dimethyl-2^5-(trifluoromethyl)-1^1H-3,5,10-triaza-1(3,6)-indola-2(4,2)-pyrimidina-4(1,3)-cyclopentanacycloundecaphan-11-one] | 517 nM | 
 | O=c1cc2c(c[nH]1)-c1ccc3c(c[nH]c3c1)-c1nc(ncc1C(F)(F)F)N[C@H]1CC[C@@H](C1)NCCCC2 [Compound Z74] |  | IC50 ([1]; Homo sapiens, HCC70, 72 h): 1250 nM; IC50 ([2]; Homo sapiens, OVCAR-3, 72 h): 3460 nM
811 nM | CN1CCOCCN(C)[C@H]2CC[C@@H](C2)Nc2ncc(C(F)(F)F)c(n2)-c2ccc3c(c[nH]c3n2)C1=O [Compound Z91, (4^1S,4^3S)-5,11-dimethyl-2^5-(trifluoromethyl)-1^1H-8-oxa-3,5,11-triaza-1(3,6)-pyrrolo[2,3-b]pyridina-2(4,2)-pyrimidina-4(1,3)-cyclopentanacyclododecaphan-12-one] | 438 nM | 
> 10000 nM | CN1CCC(F)CN(C)C2CC[C@@H](C2)Nc2ncc(C(F)(F)F)c(n2)-c2c[nH]c3c(P(C)(C)=O)c(ccc23)C1=O (stereo partly drawn) [Compound Z90, (4^1S)-1^7-(dimethylphosphoryl)-7-fluoro-5,10-dimethyl-2^5-(trifluoromethyl)-1^1H-3,5,10-triaza-1(3,6)-indola-2(4,2)-pyrimidina-4(1,3)-cyclopentanacycloundecaphan-11-one] | > 10000 nM | 
35.8 nM | CP(C)(=O)c1c2ccc3c(c[nH]c13)-c1nc(ncc1C(F)(F)F)N[C@H]1CC[C@@H](C1)NCC[C@@H](F)CNC2=O (single isomer, unassigned) [Compound Z68-1] | 10.3 nM | 
343 nM | CN1CCCCN(C)[C@H]2CC[C@@H](C2)Nc2ncc(C(F)(F)F)c(n2)-c2c[nH]c3nc(ccc23)C1=O [Compound Z92, (4^1S,4^3S)-5,10-dimethyl-2^5-(trifluoromethyl)-1^1H-3,5,10-triaza-1(3,6)-pyrrolo[2,3-b]pyridina-2(4,2)-pyrimidina-4(1,3)-cyclopentanacycloundecaphan-11-one] | 107 nM | 

SMILES | IC50 [2] | IC50 [1] | further results
CN1CC(F)(F)CCN(C)C2CCC(C2)Nc2ncc(C(F)(F)F)c(n2)-c2ccc3c(c[nH]c3n2)C1=O (stereo not drawn) [Compound Z93, (4^1S,4^3S)-8,8-difluoro-5,10-dimethyl-2^5-(trifluoromethyl)-1^1H-3,5,10-triaza-1(3,6)-pyrrolo[2,3-b]pyridine-2(4,2)-pyrimidina-4(1,3)-cyclopentanacycloundecaphan-11-one] | > 10000 nM | 5210 nM | 

Source: patent publication US20250145632A1, “Pyrimidine Heterocyclic Compound, Preparation Method Thereof and use Thereof in Medicine” (INSILICO MEDICINE IP LIMITED, priority 2021, published 2025)
